In PubChem BioAssay AID1033 (Sanford-Burnham Center for Chemical Genomics, 2008):
Calls of active or inactive are those of the source. The rule behind the calls is not given here.

Target: Chaperone protein DnaK (Escherichia coli (strain K12)) (UniProt P0A6Y8)
Test: E. coli DnaK SBD ligand binding – biophysical, NMR, chaperone (AID 1033)
Conditions: Purified DnaK SBD

Sequence of Chaperone protein DnaK (Escherichia coli (strain K12)) (P0A6Y8 whole entry, looked up): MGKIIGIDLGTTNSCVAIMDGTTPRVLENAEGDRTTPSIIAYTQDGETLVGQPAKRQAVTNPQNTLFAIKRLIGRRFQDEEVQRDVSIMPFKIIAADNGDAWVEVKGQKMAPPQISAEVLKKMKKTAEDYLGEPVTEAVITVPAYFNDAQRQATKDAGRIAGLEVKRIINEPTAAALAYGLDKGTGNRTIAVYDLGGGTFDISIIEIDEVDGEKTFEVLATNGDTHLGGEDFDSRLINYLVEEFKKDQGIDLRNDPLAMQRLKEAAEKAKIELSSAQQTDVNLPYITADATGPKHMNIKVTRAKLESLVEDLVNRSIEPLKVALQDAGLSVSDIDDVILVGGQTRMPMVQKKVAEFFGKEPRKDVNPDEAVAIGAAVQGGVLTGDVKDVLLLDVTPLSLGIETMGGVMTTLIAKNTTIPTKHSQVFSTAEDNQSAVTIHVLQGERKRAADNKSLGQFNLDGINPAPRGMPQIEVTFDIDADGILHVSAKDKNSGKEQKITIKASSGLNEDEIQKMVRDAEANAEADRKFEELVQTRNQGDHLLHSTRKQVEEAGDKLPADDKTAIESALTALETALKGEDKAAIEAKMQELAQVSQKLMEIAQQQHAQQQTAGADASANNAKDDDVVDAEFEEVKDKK

| SMILES | Kd |
| --- | --- |
| OCc1cccc2nonc12 | > 4 mM (inactive) |
| O=C(O)Cn1c(C(F)(F)F)nc2ccccc21 | > 4 mM (inactive) |
| COc1cc(C(C)=O)cc(OC)c1O | > 4 mM (inactive) |
| CCN(CC)c1nc2n(c(=O)n1)CCO2 | > 4 mM (inactive) |
| Cc1cc(Oc2ccccc2)nc(N)n1 | > 4 mM (inactive) |
| O=C(O)c1ccc(Oc2ccccc2)nc1 | > 4 mM (inactive) |
| Nc1cccc(S(=O)(=O)N2CCOCC2)c1 | > 4 mM (inactive) |
| NC(c1ccccc1)c1ccccn1 (stereo not given) | > 4 mM (inactive) |
| Nc1ncnc2c1ncn2C1C[C@H](O)[C@@H](CO)O1 (stereo not given in full) | > 4 mM (inactive) |
| c1cncc(-c2nnc(-c3cccnc3)nn2)c1 | > 4 mM (inactive) |
| Nc1nnc(SCc2ccc3c(c2)OCO3)s1 | > 4 mM (inactive) |
| CC(=O)Nc1cccc(Cn2cccn2)c1 | > 4 mM (inactive) |
| NC1CS(=O)(=O)CC1O (stereo not given) | > 4 mM (inactive) |
| O=C(Nc1cccc(O)c1)c1ccccc1 | > 4 mM (inactive) |
| CC(=O)Oc1c2c(c3c(c1CC=C(C)C)O[C@]14C(=C[C@@H]5CC1C(C)(C)OC4(C/C=C(\C)C(=O)O)C5=O)C3=O)OC(C)(CCC=C(C)C)C=C2 (stereo not given in full) | > 4 mM (inactive) |
| N/N=C1\CCCc2c1no[n+]2[O-] | > 4 mM (inactive) |
| CN(C)C(=S)Nc1ccc([N+](=O)[O-])cc1 | > 4 mM (inactive) |
| COc1ccc(C)cc1S(=O)(=O)Nc1ccccc1C | > 4 mM (inactive) |
| NC(=O)CSCc1c(Cl)cccc1Cl | > 4 mM (inactive) |
| O=C1NC(=Nc2ccc(O)cc2)S/C1=C/c1ccco1 | > 4 mM (inactive) |
| Cc1c(C(=O)Nc2ccccc2)sc(N)c1C(N)=O | > 4 mM (inactive) |
| C/C=C(\C)C(=O)O[C@@H]1c2c(ccc3ccc(=O)oc23)OC(C)(C)[C@@H]1OC(C)=O | > 4 mM (inactive) |
| COc1cccc(-c2nc(-c3ccccn3)no2)c1OC | > 4 mM (inactive) |
| CN1CCC(NC(=O)c2c(F)cccc2Cl)CC1 | > 4 mM (inactive) |

| SMILES | Kd |
| --- | --- |
| S=c1[nH]ncn1-c1ccccc1 | > 4 mM (inactive) |
| CN1CCN(C(=O)c2ccco2)CC1 | > 4 mM (inactive) |
| COc1ccc2c(c1)[n+](=O)c(C(C)=O)c(C)n2[O-] | > 4 mM (inactive) |
| O=C(NC1CC1)c1ccccc1[N+](=O)[O-] | > 4 mM (inactive) |
| O=C(O)C(CO)c1ccccc1 (stereo not given) | > 4 mM (inactive) |
| COC(=O)c1ccc2ncccc2c1 | > 4 mM (inactive) |
| COc1cc2c(cc1O)CC1c3c(cc(O)c(OC)c3-2)CCN1C (stereo not given) | > 4 mM (inactive) |
| OCC(O)C(O)C(O)CO (stereo not given) | > 4 mM (inactive) |
| Cc1cc(=O)n2[nH]c(COc3ccccc3)nc2n1 | > 4 mM (inactive) |
| O=C1C2CCCCC2C(=O)N1c1nccs1 (stereo not given) | > 4 mM (inactive) |
| Cc1ccccc1-n1c(-c2cccnc2)n[nH]c1=S | > 4 mM (inactive) |
| Cc1cc(NC(=O)CSc2ccnc(=O)[nH]2)no1 | > 4 mM (inactive) |
| O=S(=O)(O)c1cc[n+]([O-])cc1 | > 4 mM (inactive) |
| C=C[C@H]1CN2CC[C@H]1C[C@H]2[C@H](O)c1ccnc2ccccc12 | > 4 mM (inactive) |
| OCCNC(=S)Nc1ccc(F)cc1 | > 4 mM (inactive) |
| Cc1onc(-c2c(Cl)cccc2Cl)c1C(N)=O | > 4 mM (inactive) |
| O=C1NC(=S)N/C1=C\c1cccnc1 | > 4 mM (inactive) |
| O=C(Nc1cnccn1)c1ccncc1 | > 4 mM (inactive) |
| C=C1C2CC[C@@]3(C)[C@H](c4ccoc4)OC(=O)C[C@]13O[C@H]1C[C@H](OC(C)=O)C(C)(C)[C@H](CC(=O)OC)[C@@]21C | > 4 mM (inactive) |
| CC(=O)OC1CC[C@@]2(C)C(CCC3C2CC[C@]2(C)C(C4=CC(=O)OC4)C(OC(C)=O)CC32O)C1 (stereo not given in full) | > 4 mM (inactive) |
| CC(=O)c1cccc(N=C2NC(=O)CS2)c1 | > 4 mM (inactive) |
| CCn1c(=O)cc(N2CCC3(CC2)OCCO3)[nH]c1=O | > 4 mM (inactive) |
| COCc1cc(C)nc2sc(C(=O)OC)c(N)c12 | > 4 mM (inactive) |
| Cn1c(SCC(N)=O)nnc1-c1c[nH]c2ccccc12 | > 4 mM (inactive) |

| SMILES | Kd |
| --- | --- |
| COc1ccc2c(c1)[nH]c1c(C)nccc12 | > 4 mM (inactive) |
| O=C(O)C1CCN(c2ccc(C(F)(F)F)cn2)CC1 | > 4 mM (inactive) |
| COCc1cc(=O)oc2cc(O)c(Cl)cc12 | > 4 mM (inactive) |
| CCN1C(=O)N(CO)C2C1N(C)C(=O)N2C (stereo not given) | > 4 mM (inactive) |
| Fc1cccc(Cl)c1CN1CCCNCC1 | > 4 mM (inactive) |
| O=C(O)c1ccc2nsnc2c1 | > 4 mM (inactive) |
| Cc1cc(SCCF)n2ncnc2n1 | > 4 mM (inactive) |
| O=C1CSC(=Nc2ccc(C(=O)O)cc2)N1 | > 4 mM (inactive) |
| Cc1ccc(NC(=O)c2ccccc2)s1 | > 4 mM (inactive) |
| O=C(O)C1CSC2(CCCCC2)N1 (stereo not given) | > 4 mM (inactive) |
| O=c1c2c(nc3nc(Cc4ccccc4)[nH]n13)CCC2 | > 4 mM (inactive) |
| C[N+](C)(C)CC(=O)[O-] | > 4 mM (inactive) |
| Cc1cccc(NC(=O)c2ccccc2C(=O)O)c1 | > 4 mM (inactive) |
| O=C(c1ccncc1)c1ccc(Br)cc1 | > 4 mM (inactive) |
| COc1cc(/C=C/C(=O)O)ccc1O | > 4 mM (inactive) |
| O=C1NC(=S)NC(=O)C1=Cc1ccco1 | > 4 mM (inactive) |
| Cc1nnc2sc(-c3ccco3)nn12 | > 4 mM (inactive) |
| Cc1onc(-c2ccccc2)c1CO | > 4 mM (inactive) |
| c1ccc(CN2CCC3(CC2)Nc2ccccc2CO3)cc1 | > 4 mM (inactive) |
| O=C(NCc1ccccn1)c1ccc(Br)s1 | > 4 mM (inactive) |
| OCc1sccc1-n1cccc1 | > 4 mM (inactive) |
| CC(=O)c1ccc(CC2SC(N)=NC2=O)cc1 (stereo not given) | > 4 mM (inactive) |
| N=Nc1c(O)[nH]c2ccccc12 | > 4 mM (inactive) |
| O=C1C=CC(=O)N1c1ccc(N2CCOCC2)cc1 | > 4 mM (inactive) |

| SMILES | Kd |
| --- | --- |
| Cc1ccc(S(=O)(=O)/N=C2\NC(=O)CS2)cc1 | > 4 mM (inactive) |
| O=C1CC(C(=O)O)c2ccccc21 (stereo not given) | > 4 mM (inactive) |
| O=C(O)/C=C/c1ccc(O)c(O)c1 | > 4 mM (inactive) |
| Cn1c(=O)c2c(ncn2CCN)n(C)c1=O | > 4 mM (inactive) |
| CC(C)=CC(=O)Nc1ccc(S(N)(=O)=O)cc1 | > 4 mM (inactive) |
| CC(=O)O[C@H]1CC[C@@]2(C)C(CC[C@]3(C)C2CC=C2C4CC(C)(C)CC[C@]4(C)CC[C@]23C)C1(C)C (stereo not given in full) | > 4 mM (inactive) |
| O=C(O)c1cc2ccccc2o1 | > 4 mM (inactive) |
| CN1CCN(c2ccc(CN)cc2)CC1 | > 4 mM (inactive) |
| CC12CN([N+](=O)[O-])C3(C(N)=O)CC1CCC23C (stereo not given) | > 4 mM (inactive) |
| CN1CCC(NC(=O)C2CCCO2)CC1 (stereo not given) | > 4 mM (inactive) |
| CC(=O)Oc1ccc(-c2nc(-c3cccnc3)no2)cc1 | > 4 mM (inactive) |
| Cc1cc(C(=O)Nc2ccc3c(c2)OCCO3)c(C)o1 | > 4 mM (inactive) |
| C=C[C@H]1CN2CC[C@H]1C[C@@H]2[C@@H](O)c1ccnc2ccc(OC)cc12 | > 4 mM (inactive) |
| CC1(C)Cn2c(nnc2-c2ccccc2)S1 | > 4 mM (inactive) |
| NC(=O)CSc1nc2ccccc2c(=O)[nH]1 | > 4 mM (inactive) |
| COc1ccc(-c2coc3cc(OC(C)=O)cc(OC(C)=O)c3c2=O)cc1 | > 4 mM (inactive) |
| NC(=O)c1ccsc1NC(=O)c1ccccc1[N+](=O)[O-] | > 4 mM (inactive) |
| O=C1c2ccccc2C(=O)N1CCc1ccccn1 | > 4 mM (inactive) |
| O=c1[nH]c2sc3c(c2c2nncn12)CCCC3 | > 4 mM (inactive) |
| COc1cc2c(cc1OC)-c1nnnn1C(C)(C)C2 | > 4 mM (inactive) |
| NS(=O)(=O)c1ccc(NC(=O)C(F)(F)F)cc1 | > 4 mM (inactive) |
| COC(=O)N1CCN(c2ccc(C(C)=O)cc2)CC1 | > 4 mM (inactive) |
| NNc1ncnc2sccc12 | > 4 mM (inactive) |
| CC(=O)Nc1ccc(CN2CCOCC2)cc1 | > 4 mM (inactive) |

| SMILES | Kd |
| --- | --- |
| COc1cccc(-c2csc(NC(C)=O)n2)c1 | > 4 mM (inactive) |
| CN(C)N1C(=O)C2CCCCC2C1=O (stereo not given) | > 4 mM (inactive) |
| O=C(Cc1cccs1)N1CCOCC1 | > 4 mM (inactive) |
| COc1c2c(c(CC=C(C)C)c3oc(=O)c(-c4ccc(O)cc4)c(O)c13)OC(C)(C)C=C2 | > 4 mM (inactive) |
| Cc1n[nH]c(=S)n1-c1ccc(C(=O)O)cc1 | > 4 mM (inactive) |
| Cc1c(CO)cnn1-c1ccccc1 | > 4 mM (inactive) |
| CC1(C)N([O-])c2cc([N+](=O)[O-])ccc2[N+]1=O | > 4 mM (inactive) |
| COc1ccc(/C=C/c2cc(O)cc(O)c2)cc1 | > 4 mM (inactive) |
| CC(=O)Nc1ccc(S(=O)(=O)NC(N)=O)cc1 | > 4 mM (inactive) |
| NC(=O)CC(=O)NC12CC3CC(CC(C3)C1)C2 | > 4 mM (inactive) |
| OC[C@@H](O)[C@@H](O[C@@H]1O[C@H](CO)[C@@H](O)[C@H](O)[C@H]1O)[C@H](O)[C@@H](O)CO | > 4 mM (inactive) |
| CNC(=O)C(=O)Nc1c(C)cccc1C | > 4 mM (inactive) |
| CCCn1c(S(=O)(=O)O)nc2ccccc21 | > 4 mM (inactive) |
| O=S1(=O)CCC(NC(=S)N2CCCCC2)C1 (stereo not given) | > 4 mM (inactive) |
| COC(=O)CC1SC(=O)NC1=O (stereo not given) | > 4 mM (inactive) |
| Cc1cc(=O)n(C(N)=S)[nH]1 | > 4 mM (inactive) |
| CC1/C(=N/O)C[C@@H]2C[C@H]1C2(C)C (stereo not given in full) | > 4 mM (inactive) |
| Cc1cc(NC(=O)CSc2nncn2C)no1 | > 4 mM (inactive) |
| CC(C)=CCCC1(C)C=Cc2c(O)c3c(c(CC=C(C)C)c2O1)OC12C(=CC4CC1C(C)(C)OC2(C/C=C(/C)C(=O)O)C4O)C3=O (stereo not given) | > 4 mM (inactive) |
| Cc1ccc(-c2nc(-c3cccnc3)no2)c(C)c1 | > 4 mM (inactive) |
| CSc1nc(C)cc(Oc2ccc(=O)n(C)n2)n1 | > 4 mM (inactive) |
| CP(C)(=O)CCC(=O)O | > 4 mM (inactive) |
| O=c1cc(-c2ccc(O)cc2)[nH]c(=S)[nH]1 | > 4 mM (inactive) |
| Nc1cccc(C(=O)c2ccccc2)c1 | > 4 mM (inactive) |
